Experimental data from ChEMBL document CHEMBL1201862, “PubChem BioAssay data set” (2004).
Active and inactive are the calls of the source.

Key:
[1] = molecular target: T1, Rac GTPase-activating protein 1 (Homo sapiens, UniProt Q9H0H5); assay: MgcRacGAP GTPase-activating activity inhibitors, confirmation, biochemical, ADP Hunter fluorescence, primary and confirmatory (AID 624330); format: functional
T1 sequence (Q9H0H5 whole entry): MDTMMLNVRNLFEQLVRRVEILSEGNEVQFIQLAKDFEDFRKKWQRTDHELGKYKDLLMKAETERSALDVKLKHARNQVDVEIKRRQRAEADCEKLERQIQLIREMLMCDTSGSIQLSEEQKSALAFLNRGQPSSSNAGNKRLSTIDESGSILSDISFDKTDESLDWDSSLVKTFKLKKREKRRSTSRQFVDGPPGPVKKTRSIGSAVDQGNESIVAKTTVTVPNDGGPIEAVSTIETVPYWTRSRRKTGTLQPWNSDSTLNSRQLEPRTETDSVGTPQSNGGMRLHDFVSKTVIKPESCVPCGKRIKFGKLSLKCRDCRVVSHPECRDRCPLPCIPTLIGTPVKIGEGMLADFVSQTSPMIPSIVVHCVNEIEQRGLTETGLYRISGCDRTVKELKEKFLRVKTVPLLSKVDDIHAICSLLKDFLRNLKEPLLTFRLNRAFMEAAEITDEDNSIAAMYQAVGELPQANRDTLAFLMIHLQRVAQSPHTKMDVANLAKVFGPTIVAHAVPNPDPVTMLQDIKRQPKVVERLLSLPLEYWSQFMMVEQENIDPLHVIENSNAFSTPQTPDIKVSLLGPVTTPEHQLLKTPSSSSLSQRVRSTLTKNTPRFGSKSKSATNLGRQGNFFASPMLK

[2] = molecular target: T2, Carboxy-terminal domain RNA polymerase II polypeptide A small phosphatase 1 (Homo sapiens, UniProt Q9GZU7); assay: inhibitors of CTDSP1, concentration-response testing, biochemical assay, absorbance-based, actives from ultra-high-throughput screening (AID 540297); format: functional
T2 sequence (Q9GZU7 whole entry): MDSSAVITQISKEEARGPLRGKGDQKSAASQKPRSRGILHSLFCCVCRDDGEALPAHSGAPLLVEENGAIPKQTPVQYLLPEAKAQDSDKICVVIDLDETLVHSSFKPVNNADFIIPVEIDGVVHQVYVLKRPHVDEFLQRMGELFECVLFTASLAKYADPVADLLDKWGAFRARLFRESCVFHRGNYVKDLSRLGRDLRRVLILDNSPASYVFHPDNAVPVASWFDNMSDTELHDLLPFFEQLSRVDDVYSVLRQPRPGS

[3] = molecular target: DNA (cytosine-5)-methyltransferase 1 (Homo sapiens, UniProt P26358); assay: DNMT1 methyltransferase inhibitors, confirmation, biochemical, fluorescent molecular beacon (AID 602386); format: functional
Chain of DNA (cytosine-5)-methyltransferase 1 (P26358 whole entry): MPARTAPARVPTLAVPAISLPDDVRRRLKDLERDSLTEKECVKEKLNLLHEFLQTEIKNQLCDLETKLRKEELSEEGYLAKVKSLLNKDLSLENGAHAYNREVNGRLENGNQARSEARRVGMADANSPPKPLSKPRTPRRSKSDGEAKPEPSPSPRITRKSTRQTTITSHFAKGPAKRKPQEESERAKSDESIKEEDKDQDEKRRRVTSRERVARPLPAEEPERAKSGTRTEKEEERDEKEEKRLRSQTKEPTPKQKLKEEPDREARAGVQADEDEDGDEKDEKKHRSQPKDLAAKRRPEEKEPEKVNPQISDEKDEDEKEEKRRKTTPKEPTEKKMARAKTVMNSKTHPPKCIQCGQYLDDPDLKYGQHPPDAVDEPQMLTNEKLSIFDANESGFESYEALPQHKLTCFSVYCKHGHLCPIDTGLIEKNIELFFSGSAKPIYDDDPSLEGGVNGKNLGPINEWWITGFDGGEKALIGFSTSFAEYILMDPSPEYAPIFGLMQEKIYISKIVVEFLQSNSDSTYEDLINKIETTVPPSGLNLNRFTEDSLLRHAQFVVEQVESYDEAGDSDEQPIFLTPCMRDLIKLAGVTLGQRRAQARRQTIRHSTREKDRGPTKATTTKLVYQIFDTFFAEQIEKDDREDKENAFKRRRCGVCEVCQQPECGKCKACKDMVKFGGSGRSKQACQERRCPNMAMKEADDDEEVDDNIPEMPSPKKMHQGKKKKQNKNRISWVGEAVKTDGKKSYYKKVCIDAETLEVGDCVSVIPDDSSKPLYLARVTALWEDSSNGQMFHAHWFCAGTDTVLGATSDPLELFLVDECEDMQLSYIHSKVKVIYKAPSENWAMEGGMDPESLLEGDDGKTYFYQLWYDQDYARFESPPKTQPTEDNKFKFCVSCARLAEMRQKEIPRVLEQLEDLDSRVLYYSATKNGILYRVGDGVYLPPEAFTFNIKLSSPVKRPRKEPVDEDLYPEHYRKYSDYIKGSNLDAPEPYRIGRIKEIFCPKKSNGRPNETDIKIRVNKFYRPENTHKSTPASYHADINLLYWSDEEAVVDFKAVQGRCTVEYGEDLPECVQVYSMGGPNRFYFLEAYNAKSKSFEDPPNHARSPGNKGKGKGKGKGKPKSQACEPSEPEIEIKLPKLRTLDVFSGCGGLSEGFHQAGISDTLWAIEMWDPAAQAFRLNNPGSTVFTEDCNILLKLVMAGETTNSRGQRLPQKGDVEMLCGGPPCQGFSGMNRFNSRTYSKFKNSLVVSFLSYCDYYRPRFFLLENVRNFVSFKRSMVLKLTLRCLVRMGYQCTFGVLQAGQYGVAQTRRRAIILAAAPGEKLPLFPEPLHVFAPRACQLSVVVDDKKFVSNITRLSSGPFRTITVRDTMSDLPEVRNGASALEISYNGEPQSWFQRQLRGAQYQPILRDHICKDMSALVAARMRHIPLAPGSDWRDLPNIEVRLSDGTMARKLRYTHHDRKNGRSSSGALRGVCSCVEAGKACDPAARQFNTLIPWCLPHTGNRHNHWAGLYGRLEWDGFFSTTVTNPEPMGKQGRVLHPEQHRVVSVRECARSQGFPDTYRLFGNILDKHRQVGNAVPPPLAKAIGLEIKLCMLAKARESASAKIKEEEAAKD

[4] = molecular target: T3, DNA repair protein RAD52 homolog (Homo sapiens, UniProt P43351); format: functional, biochemical
T3 sequence (P43351 whole entry): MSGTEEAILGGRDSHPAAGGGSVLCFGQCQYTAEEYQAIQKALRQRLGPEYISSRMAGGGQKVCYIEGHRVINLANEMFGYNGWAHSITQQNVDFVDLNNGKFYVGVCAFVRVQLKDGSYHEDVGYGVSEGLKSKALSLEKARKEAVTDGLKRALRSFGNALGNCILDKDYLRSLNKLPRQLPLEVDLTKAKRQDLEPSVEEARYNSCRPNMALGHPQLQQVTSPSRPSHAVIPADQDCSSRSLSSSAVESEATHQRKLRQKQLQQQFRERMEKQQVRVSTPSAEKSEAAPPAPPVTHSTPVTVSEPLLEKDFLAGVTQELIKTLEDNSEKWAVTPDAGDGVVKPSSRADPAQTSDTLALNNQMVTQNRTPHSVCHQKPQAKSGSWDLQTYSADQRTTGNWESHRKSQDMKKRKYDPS

[5] = molecular target: DNA repair and recombination protein RAD54-like (Homo sapiens, UniProt Q92698); assay: inhibitors of human RAD54 branch migration, confirmation, biochemical, fluorescence, cherry-picked samples, dose series (AID 651657); format: functional
Chain of DNA repair and recombination protein RAD54-like (Q92698 whole entry): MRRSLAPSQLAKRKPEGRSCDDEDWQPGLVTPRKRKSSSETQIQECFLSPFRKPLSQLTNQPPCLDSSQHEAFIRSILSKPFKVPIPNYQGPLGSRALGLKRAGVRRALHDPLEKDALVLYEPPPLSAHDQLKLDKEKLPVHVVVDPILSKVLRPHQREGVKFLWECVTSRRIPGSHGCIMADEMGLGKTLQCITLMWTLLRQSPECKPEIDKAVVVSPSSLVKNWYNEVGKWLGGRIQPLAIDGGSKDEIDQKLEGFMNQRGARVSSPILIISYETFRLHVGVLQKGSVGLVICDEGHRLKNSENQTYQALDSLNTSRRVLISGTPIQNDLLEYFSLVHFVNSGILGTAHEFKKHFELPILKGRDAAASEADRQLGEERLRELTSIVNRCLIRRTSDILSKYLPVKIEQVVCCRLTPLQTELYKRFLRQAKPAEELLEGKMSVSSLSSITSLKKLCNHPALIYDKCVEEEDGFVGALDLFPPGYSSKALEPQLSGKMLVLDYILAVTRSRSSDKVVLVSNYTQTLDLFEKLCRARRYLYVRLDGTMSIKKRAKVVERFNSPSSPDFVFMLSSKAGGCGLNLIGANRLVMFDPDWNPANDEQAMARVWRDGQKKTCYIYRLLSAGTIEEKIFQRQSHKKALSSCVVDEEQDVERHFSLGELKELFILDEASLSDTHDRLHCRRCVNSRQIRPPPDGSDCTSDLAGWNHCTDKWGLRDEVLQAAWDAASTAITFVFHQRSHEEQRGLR

Protein Wnt-3a = Protein Wnt-3a (Mus musculus, UniProt P27467); assay: Wnt3a-driven reporter signaling inhibition, dose response, selectivity assay for Gli-SUFU antagonist project, Wnt-LIGHT cells, luminescence (AID 651570); format: functional; conditions: read-out: IC50_Mean;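 also: Wnt-LIGHT reporter cells stimulated with conditioned medium from Wnt3a-producing cells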
Chain of Protein Wnt-3a (P27467 whole entry): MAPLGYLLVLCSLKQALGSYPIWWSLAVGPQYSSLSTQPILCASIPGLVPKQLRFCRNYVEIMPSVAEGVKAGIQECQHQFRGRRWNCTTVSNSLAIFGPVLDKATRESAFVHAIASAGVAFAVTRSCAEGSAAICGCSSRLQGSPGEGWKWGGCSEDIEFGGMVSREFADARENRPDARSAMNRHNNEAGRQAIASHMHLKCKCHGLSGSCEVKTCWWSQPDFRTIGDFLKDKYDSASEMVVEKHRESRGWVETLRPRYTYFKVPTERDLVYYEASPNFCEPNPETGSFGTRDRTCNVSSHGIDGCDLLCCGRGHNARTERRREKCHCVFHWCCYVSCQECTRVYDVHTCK

[6] = molecular target: Tyrosine-protein phosphatase non-receptor type 11 (Homo sapiens, UniProt Q06124); assay: SHP2 phosphatase inhibition, dose response, selectivity assay for STEP inhibitor project, biochemical (AID 602367); format: functional; conditions: read-out: IC50_Mean
[7] = molecular target: Tyrosine-protein phosphatase non-receptor type 5 (Homo sapiens, UniProt P54829); assay: STEP phosphatase inhibitors, confirmation, biochemical, fluorescence intensity, uHTS hits (AID 602372); format: functional; conditions: read-out: IC50_Mean
[8] = molecular target: Dual specificity protein phosphatase 3 (Homo sapiens, UniProt P51452); assay: VHR phosphatase inhibition, dose response, selectivity assay for STEP inhibitor project, biochemical (AID 602374); format: functional; conditions: read-out: IC50_Mean
Chain of Dual specificity protein phosphatase 3 (P51452 whole entry): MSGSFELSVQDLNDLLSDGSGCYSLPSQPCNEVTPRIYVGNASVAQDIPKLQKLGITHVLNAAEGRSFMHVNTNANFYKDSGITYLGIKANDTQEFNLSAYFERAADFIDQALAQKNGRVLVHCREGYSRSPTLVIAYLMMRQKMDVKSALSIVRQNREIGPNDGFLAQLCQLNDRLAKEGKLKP

[9] = molecular target: ADP-ribosylation factor GTPase-activating protein 1 (Rattus norvegicus, UniProt Q62848); assay: Fluorescence polarization-based biochemical high throughput dose response screening assay to identify inhibitors of ADP-ribosylation factor GTPase activating protein 1 (ARFGAP1).; format: functional
Chain of ADP-ribosylation factor GTPase-activating protein 1 (Q62848 whole entry): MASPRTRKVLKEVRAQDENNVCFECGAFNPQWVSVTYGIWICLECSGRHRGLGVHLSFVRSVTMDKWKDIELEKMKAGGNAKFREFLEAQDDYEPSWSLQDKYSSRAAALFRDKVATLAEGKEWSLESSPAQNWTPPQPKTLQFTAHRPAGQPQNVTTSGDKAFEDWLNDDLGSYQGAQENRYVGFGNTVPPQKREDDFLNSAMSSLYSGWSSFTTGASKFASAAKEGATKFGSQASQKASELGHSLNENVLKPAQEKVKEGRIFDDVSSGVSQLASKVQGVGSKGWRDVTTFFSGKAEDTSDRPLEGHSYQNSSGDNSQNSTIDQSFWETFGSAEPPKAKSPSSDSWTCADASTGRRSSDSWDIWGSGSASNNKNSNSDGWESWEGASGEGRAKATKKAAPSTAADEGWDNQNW

[10] = inhibitors of intracellular T. cruzi replication, confirmation, NIH3T3 host cells, beta-gal luminescence (AID 2044); format: functional, cell-based;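 also: intracellular parasites grown in NIH/3T3 mouse fibroblasts as host cells; luminescent beta-galactosidase reporter signal from transgenic T. cruzi replicating inside host cells; inhibitors lower the luminescence signal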
[11] = cytotoxicity toward NIH3T3 fibroblasts, dose response, counter-screen, cell-based, ATP luminescence, mouse fibroblasts (AID 2010); format: functional;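 also: cells exposed to compound for about 90 hours before reading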
INS1 = assay: beta cell apoptosis inhibitors, cytokine rescue, dose response, luminescence, retest (AID 449756); format: functional, cell-based; conditions: Rattus norvegicus;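 also: cell death triggered by IL-1 beta plus TNF-alpha plus IFN-gamma mixture; protective hits raise ATP signal compared with cytokine alone wells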
Steroidogenic factor 1 = Steroidogenic factor 1 (Homo sapiens, UniProt Q13285); assay: Counterscreen for inverse agonists of the liver receptor homolog-1 (LRH-1; NR5A2): Luminescence-based cell-based high throughput dose response assay to identify inverse agonists of the Steroidogenic Factor 1 Nuclear Receptor (SF1; NR5A1).; format: functional
Chain of Steroidogenic factor 1 (Q13285 whole entry): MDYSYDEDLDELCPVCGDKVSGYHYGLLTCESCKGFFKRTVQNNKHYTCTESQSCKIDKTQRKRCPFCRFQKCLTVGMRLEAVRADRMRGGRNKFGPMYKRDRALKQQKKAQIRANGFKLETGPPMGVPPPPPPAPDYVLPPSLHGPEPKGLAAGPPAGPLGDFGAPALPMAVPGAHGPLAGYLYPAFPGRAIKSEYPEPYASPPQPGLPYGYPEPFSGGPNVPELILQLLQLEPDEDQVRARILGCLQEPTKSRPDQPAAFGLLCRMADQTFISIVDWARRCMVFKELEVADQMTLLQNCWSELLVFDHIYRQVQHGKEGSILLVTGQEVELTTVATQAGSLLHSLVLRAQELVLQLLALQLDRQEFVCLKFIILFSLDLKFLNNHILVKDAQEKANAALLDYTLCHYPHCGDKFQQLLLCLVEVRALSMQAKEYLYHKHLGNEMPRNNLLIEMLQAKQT

[12] = molecular target: Nuclear receptor subfamily 5 group A member 2 (Homo sapiens, UniProt O00482); format: functional, cell-based;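 also: HEK293T cells transfected with LRH-1 and a StAR promoter luciferase reporter; potency for inhibitors that lower LRH-1 driven reporter light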
Chain of Nuclear receptor subfamily 5 group A member 2 (O00482 whole entry): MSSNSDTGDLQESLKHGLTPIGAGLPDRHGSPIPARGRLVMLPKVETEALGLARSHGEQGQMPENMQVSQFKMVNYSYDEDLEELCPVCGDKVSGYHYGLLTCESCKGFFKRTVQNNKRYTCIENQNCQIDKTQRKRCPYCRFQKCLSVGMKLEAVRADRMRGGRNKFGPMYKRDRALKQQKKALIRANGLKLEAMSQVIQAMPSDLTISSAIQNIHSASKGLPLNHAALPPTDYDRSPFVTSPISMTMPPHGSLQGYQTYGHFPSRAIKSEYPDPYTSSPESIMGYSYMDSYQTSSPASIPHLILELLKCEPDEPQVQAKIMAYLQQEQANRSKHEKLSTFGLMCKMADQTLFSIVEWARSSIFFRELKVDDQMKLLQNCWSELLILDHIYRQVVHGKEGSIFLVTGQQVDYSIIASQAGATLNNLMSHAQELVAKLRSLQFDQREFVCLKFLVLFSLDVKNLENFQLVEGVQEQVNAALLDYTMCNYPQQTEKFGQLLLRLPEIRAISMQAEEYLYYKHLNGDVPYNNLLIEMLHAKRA

[13] = StAR promoter reporter inhibition counter-screen, dose response, counter-screen for LRH-1 inverse agonist project, cell-based, luminescence, luciferase reporter (AID 651969); format: functional
[14] = molecular target: T4, Methionyl-tRNA synthetase, putative (Trypanosoma brucei brucei, UniProt Q38C91); format: functional, Trypanosoma brucei brucei strain 927/4 GUTat10.1
T4 sequence (Q38C91 whole entry): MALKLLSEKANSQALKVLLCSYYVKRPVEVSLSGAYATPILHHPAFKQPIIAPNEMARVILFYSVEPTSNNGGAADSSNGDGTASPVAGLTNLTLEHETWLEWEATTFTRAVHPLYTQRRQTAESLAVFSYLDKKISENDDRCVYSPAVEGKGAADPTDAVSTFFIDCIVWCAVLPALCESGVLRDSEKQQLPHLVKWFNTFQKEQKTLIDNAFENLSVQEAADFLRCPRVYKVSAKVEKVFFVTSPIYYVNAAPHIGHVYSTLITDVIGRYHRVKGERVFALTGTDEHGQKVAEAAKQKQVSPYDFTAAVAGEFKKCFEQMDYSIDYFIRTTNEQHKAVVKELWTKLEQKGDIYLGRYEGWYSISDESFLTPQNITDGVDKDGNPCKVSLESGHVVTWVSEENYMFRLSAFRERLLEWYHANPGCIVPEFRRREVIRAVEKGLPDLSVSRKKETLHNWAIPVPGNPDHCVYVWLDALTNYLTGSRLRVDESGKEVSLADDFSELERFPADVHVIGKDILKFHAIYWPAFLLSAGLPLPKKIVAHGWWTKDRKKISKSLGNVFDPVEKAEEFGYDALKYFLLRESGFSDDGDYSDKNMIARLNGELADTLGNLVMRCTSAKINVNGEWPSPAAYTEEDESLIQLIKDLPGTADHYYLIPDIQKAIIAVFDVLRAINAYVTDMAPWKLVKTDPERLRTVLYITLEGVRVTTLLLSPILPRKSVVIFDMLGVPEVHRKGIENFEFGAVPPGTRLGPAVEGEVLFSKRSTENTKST

[15] = molecular target: T4, Methionyl-tRNA synthetase, putative; format: functional, Trypanosoma brucei brucei strain 927/4 GUTat10.1; remark: listed apart in the source
[16] = Counterscreen for inhibitors of Trypanosoma brucei methionyl tRNA synthetase (MetRS): Luminescence-based cell-based high throughput dose response assay to identify compounds that are cytotoxic to Jurkat human T lymphocyte cells.; format: functional
[17] = molecular target: T5, Ubiquitin-conjugating enzyme E2 N (Homo sapiens, UniProt P61088); format: functional;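 also: Dose-response confirmation in a TR-FRET assay detecting UBC13-driven polyubiquitin chain formation, inhibition measured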
T5 sequence (P61088 whole entry): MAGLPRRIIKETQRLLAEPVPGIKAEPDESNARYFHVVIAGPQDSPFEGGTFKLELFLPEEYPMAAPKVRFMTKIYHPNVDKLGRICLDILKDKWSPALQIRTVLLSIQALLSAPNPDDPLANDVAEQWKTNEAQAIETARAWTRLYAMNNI

[18] = growth suppression of beta-catenin-knockout colon cells, dose response, cell-based, HCT116, human colon tumor (AID 1045); format: functional;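 also: HCT116 colon tumor cells with beta catenin knocked out; cells exposed to compound for 60 hours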
[19] = insulin promoter down-regulators in MIN6 cells, imaging, high-content screening, mouse beta cells (AID 1628); format: functional
[20] = growth suppression of PTEN-null colon cells, dose response, cell-based, HCT116 PTEN knockout (AID 1047); format: functional;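 also: HCT116 colon tumor cells with PTEN knocked out; cells exposed to compound for 60 hours before readout; potency for loss of cell viability measured by luminescence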
[21] = microbe, parasite or virus in culture; format: functional; conditions: Mycobacterium tuberculosis
[22] = cytotoxicity in MIN6 insulinoma cells, dose response, cytotoxicity control, cell-based, mouse insulinoma (AID 2122); format: functional;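 also: confirmatory high-throughput counterscreen run to flag cytotoxic compounds; mouse MIN-6 beta cells carrying an insulin promoter eGFP reporter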
[23] = molecular target: T6, Tyrosine-protein phosphatase non-receptor type 7 (Homo sapiens, UniProt P35236); assay: inhibitors of human HePTP phosphatase, […], biochemical, absorbance, leukemia target (AID 521); format: functional
T6 sequence (P35236 whole entry): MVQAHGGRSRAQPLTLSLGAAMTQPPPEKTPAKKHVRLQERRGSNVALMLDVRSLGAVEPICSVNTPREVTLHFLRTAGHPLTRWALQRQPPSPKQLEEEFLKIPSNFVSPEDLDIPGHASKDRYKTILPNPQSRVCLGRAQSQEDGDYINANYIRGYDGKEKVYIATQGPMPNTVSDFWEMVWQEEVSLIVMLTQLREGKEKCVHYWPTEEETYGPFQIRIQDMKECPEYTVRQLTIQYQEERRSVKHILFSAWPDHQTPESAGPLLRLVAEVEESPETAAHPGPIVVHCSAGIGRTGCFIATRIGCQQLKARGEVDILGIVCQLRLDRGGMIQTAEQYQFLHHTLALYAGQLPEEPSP

[24] = molecular target: T7, Induced myeloid leukemia cell differentiation protein Mcl-1 (Homo sapiens, UniProt Q07820); format: functional
T7 sequence (Q07820 whole entry): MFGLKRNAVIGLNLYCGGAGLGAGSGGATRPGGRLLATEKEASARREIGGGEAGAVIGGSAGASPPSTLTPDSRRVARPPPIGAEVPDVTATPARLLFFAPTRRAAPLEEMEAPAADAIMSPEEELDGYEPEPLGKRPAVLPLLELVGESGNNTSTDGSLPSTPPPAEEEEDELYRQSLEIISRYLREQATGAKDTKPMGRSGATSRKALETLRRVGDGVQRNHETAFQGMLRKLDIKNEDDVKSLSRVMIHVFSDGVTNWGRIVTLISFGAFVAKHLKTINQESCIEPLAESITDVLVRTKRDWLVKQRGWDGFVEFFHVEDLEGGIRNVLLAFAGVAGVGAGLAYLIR

[25] = molecular target: T8, Small ubiquitin-related modifier 1 (Homo sapiens, UniProt P63165); assay: inhibitors of SUMO1 partner interactions, dose response, biochemical, FRET (AID 624383); format: functional; conditions: read-out: IC50_Mean
T8 sequence (P63165 whole entry): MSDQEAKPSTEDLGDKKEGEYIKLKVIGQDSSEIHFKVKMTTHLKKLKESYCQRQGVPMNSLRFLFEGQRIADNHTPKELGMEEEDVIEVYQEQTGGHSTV

[26] = molecular target: T7, Induced myeloid leukemia cell differentiation protein Mcl-1; assay: MCL1-BIM BH3 interaction inhibitors, dose response, biochemical, fluorescence polarization, BIM-BH3 peptide, 1536-well (AID 2217)
[27] = molecular target: T8, Small ubiquitin-related modifier 1; assay: inhibitors of SUMO1 peptide binding, dose response, biochemical, fluorescence polarization, uHTS hits (AID 624382); format: functional; conditions: read-out: IC50_Mean
Bcl-2-like protein 1 = Bcl-2-like protein 1 (Homo sapiens, UniProt Q07817); assay: BCL-XL inhibitors, dose response, selectivity assay for MCL1 inhibitor project, biochemical, fluorescence polarization, 1536-well (AID 2218)

C/C=C/C=C/C(=O)C1=C(O)[C@]2(C)C(=O)C(C)(O)[C@H]1[C@H]([C@]1(C)OC(O)=C(C)C1=O)[C@H]2C(=O)/C=C/C=C/C (some centres undefined)
IC50 [1]: 122 µM (active) | IC50 [2]: 5.92 µM (active) | IC50 [3]: 5.25 µM (active)

Cc1c(OCC(=O)NC2CC(C)(C)NC(C)(C)C2)ccc2c1oc(=O)c1ccccc12
AC50 [4]: 27.1 µM (active) | AC50 [5]: 22.4 µM (active)

Cc1cc(O)nc(SCC(=O)/C=C2\N(C)c3ccccc3C2(C)C)n1
IC50 (Protein Wnt-3a): 50 µM (inactive)

CC(C)OCCCN=C(S)Nc1ccc(S(N)(=O)=O)cc1
IC50 [6]: 0.771 µM (active) | IC50 [7]: 53 µM (inactive) | IC50 [8]: 1.08 µM (active)

COCCCn1c(C)cc(C(=O)CN2c3cccc4cccc(c34)S2(=O)=O)c1C
IC50 [9]: 60.2 µM (inactive)

Cc1cc(/C=C2/SC(=S)N(c3ccc([N+](=O)[O-])cc3)C2=O)c(C)n1-c1cccnc1
EC50 [10]: 0.915 µM (active) | EC50 [11]: > 60 µM (inconclusive) | IC50 (Protein Wnt-3a): 8.94 µM (active) | AC50 (INS1): 0.862 µM (active)

COc1ccccc1Oc1nnnn1-c1ccc(C(N)=O)cc1
IC50 (Steroidogenic factor 1): 7.85 µM (active) | IC50 [12]: 35.9 µM (inactive) | IC50 [13]: 35.9 µM (inactive)

Cc1cc(NS(=O)(=O)c2ccc(NC(=S)NC(=O)c3cccc(S(=O)(=O)N(C)C)c3)cc2)no1
IC50 [9]: 46.6 µM (inactive)

Nc1c(Cl)ncnc1Nc1ccc(C(=O)O)cc1
IC50 [14]: 3.93 µM (active) | IC50 [15]: 12.5 µM (inactive) | IC50 [16]: 83.2 µM (inactive)

O=C(COC(=O)c1ccc[n+]([O-])c1)Nc1ccc([N+](=O)[O-])cc1Cl
IC50 (Steroidogenic factor 1): 4.98 µM (active) | IC50 [12]: 3.98 µM (active) | IC50 [13]: 35.9 µM (inactive)

Cc1cc(Br)ccc1NC(=O)c1ccc(-n2cncn2)c([N+](=O)[O-])c1
IC50 [14]: 5.79 µM (active) | IC50 [15]: 119 µM (inactive) | IC50 [16]: 83.3 µM (inactive)

CCN(CC)CCCNc1nc2cc(OC)c(OC)cc2c2nc(-c3ccccc3)nn12
IC50 [17]: > 20 µM (inactive) | EC50 [18]: 4.58 µM (active) | EC50 [10]: 0.709 µM (active) | EC50 [11]: 12 µM (active) | IC50 [3]: > 99 µM (inactive) | IC50 [19]: 1.11 µM (active) | EC50 [20]: 7.1 µM (active) | CC50 [21]: 19.9 µM (active) | AC50 [5]: 2.03 µM (active) | IC50 [22]: 2.07 µM (active)

Cn1cnnc1SCC(=O)Nc1sc2c(c1C(N)=O)CCC2
IC50 [23]: 2.43 µM (active) | IC50 [2]: 2.77 µM (active) | IC50 [24]: 3.16 µM (active) | IC50 [25]: 13.7 µM (active) | IC50 [26]: 8.58 µM (active) | IC50 [27]: > 66.6 µM (inactive) | IC50 (Bcl-2-like protein 1): > 36.3 µM (not active)
